Where two headings read alike, the source gives them in different places. Residues, ends and D or L forms follow the SMILES beside them.
Tests used:
[1] = test system: DLL1-Notch1 signalling; assay: Co-culture Notch luciferase reporter assay, DLL1-induced; format: cell-based, human; details: DAPT 50 μM
Description: (§1) Specificity of N1 (SEQ ID NO: 10) peptide in inhibiting different Notch ligand-induced Notch signaling was investigated using in vitro co-culture assay. HEK293T or CHO cells expressing Notch ligand (either Jag1, DLL1 or DLL4) are co-cultured with Notch1- or Notch2-expressing cells. Notch1 and Notch2 signalling can be measured by either luciferase reporter assay or by the formation of NICD1 and NICD2. […] Half inhibition is reached at between 50 to 100 μM. […] This contrasts with DAPT which affects all the above interactions.
(§2) HEK-293T-Jagged-1 cells were seeded in 24-well plates in triplicate per sample group, and human HCT-116 cells were seeded in one 60 mm dish. Cells were allowed to settle, and were transfected the following day after the medium was changed to be antibiotic free. HCT-116 cells were transfected with 12×CSL-Luc and Renilla-Luc, using Lipofectamine® 3000 (Invitrogen™), according to the manufacturer's instructions. After 24 hours, HCT-116 cells were scraped and 2.5×10^4 cells in 1 mL complete medium per well were added to both 24-well plates. Peptides were treated to cells with the desired concentrations. N—[N-(3,5-difluorophenacetyl)-L-alanyl]-S-phenylglycine t-butyl ester (DAPT) was used as positive control. Cells were co-cultured for 12 hours before measure the luciferase activity. After incubation, cells were lysed with luciferase lysis buffer. Notch activity in cells expressing the 12×CSL-Luc reporter construct was measured by a luciferase assay using Dual-Luciferase® Reporter Assay System (Promega).

[2] = in vitro; format: cell-based; details: mouse
Description: (§3) HCT-116, HCT-15, S1-M1-80, S1, L929, HEK293T-Jagged-1 were seeded in each well of a 96-well plate with a series of concentrations (a serial dilution from 1000μM to 0.5 μM) of peptides or drugs including DAPT, Topotecan at 37° C. with 5% CO2 in a humidified incubator for 3 days. Percentage of survival was determined by MTS assay as described.

[3] = test system: DLL4-Notch1 signalling; assay: Co-culture Notch luciferase reporter assay, DLL4-induced; format: cell-based, human; details: DAPT 50 μM
Description: as §1, §2

[4] = test system: S1; assay: cells; format: cell-based, human
Description: as §3

[5] = test system: S1-M1-80 cells; assay: cells; format: cell-based, human
Description: as §3

[6] = test system: HEK-293T-Jagged-1 cells; format: cell-based, human
Description: as §3

[7] = test system: Jag1-Notch1 signalling; assay: Co-culture Notch luciferase reporter assay, Jag1-induced; format: cell-based, human; details: for inhibition of Jag1-induced Notch signaling compared with N1: peptides 25 μM; for inhibition of Jag1-induced Notch1 signalling, dose response: reporter assay, DAPT 50 μM
Description: Jag1-Notch interaction is measured using a co-culture assay with one cell line expressing the Notch ligand Jagged1 (Jag1) and a second expressing Notch (either Notch1 or Notch2). A firefly luciferase reporter plasmid with 12 upstream CBF-1 binding site was transfected into signalling-receiving cells to report on Notch signalling (FIG. 1D). Peptides were tested for their activity in inhibiting Jag1-induced Notch signalling. Complete inhibition is equivalent to the background signal seen without induction (−Jag1). […] N1 (SEQ ID NO: 10) is a 15-mer derived from the EGF-like repeat 12 of Notch1 (C467-G481). This is consistent with the structural information that EGF-like repeat 12 of Notch1 is near the MNNL domain of Jag1 (FIGS. 1B and C).
as §1, §2

[8] = test system: Jag1-induced NICD1; assay: Co-culture assay, Jag1-induced NICD1 level; format: cell-based, human; details: N1 at 50 μM
Description: as §1
(§4) The cleaved Notch1 (Val1744) (D3B8) rabbit monoclonal antibody (CST) and Notch2 (Cleaved Ala1734) rabbit monoclonal antibody at 1:1000 dilution were used to detect human Notch intracellular domain (NICD1) and Notch2 intracellular domain (NICD2), respectively. β-actin was detected using a mouse monoclonal antibody (Santa Cruz Biotechnology) at 1:3000 dilution.

[9] = test system: DLL1-induced NICD1; assay: Co-culture assay, DLL1-induced NICD1 level; format: cell-based, human
Description: as §1, §4

[10] = test system: S1-M1-80 cells; assay: Clonogenicity assay, S1-M1-80; format: cell-based, human; details: for colony formation, combination with TPT: S1-M1-80, combined with 1 μM of TPT (DAPT 1 μM)
Description: The procedure for colony formation assay consists of following steps. An appropriate number of cells per well were seeded on a 6-well plate in duplicate. The number of cells for seeding should be related to the aggressiveness of the treatment. The cells were incubated for 12 hours in a CO2 incubator at 37° C. and allow cells to attach to the plate. The cells were treated with peptides or (DAPT) to required concentrations. The cells were incubated in a in a CO2 incubator at 37° C. for about 10 days until cells in control well have formed colonies which are of a substantially good size (the minimum score is 100 cells per colony). After the incubation, the medium was removed and cells were rinsed with 5 ml 1×PBS (phosphate buffered saline. pH 7.2). The cells were then fixed with 1 ml methanol at room temperature for 10 min. After fixation, the cells were stained with 0.5% crystal violet solution and incubated at room temperature for 1 h. After staining, the plates were immersed in deionized water to rinse off crystal violet and air-dried at room temperature for overnight. The dry plates were pictured with scanner. The number of colonies in each well was counted by cell counter software.

[11] = test system: NICD1; assay: NICD1 formation in HCT-15; format: cell-based, human; details: peptides 100 μM
Description: (§5) This panel of peptides was also tested for their cytotoxic activities against two human colorectal cell lines (HCT-116 and HCT-15). At a concentration of 100 μM, N1 (SEQ ID NO: 10) is the only peptide that is cytotoxic to HCT-116 and HCT-15 cells (FIGS. 2B and C). Notch signaling results in the release of NICD1 from the membrane-bound Notch receptor.
as §4

[12] = test system: DLL4-induced NICD1; assay: Co-culture assay, DLL4-induced NICD1 level; format: cell-based, human
Description: as §1, §4

[13] = test system: NICD2; assay: Co-culture assay, NICD2 formation (Jag1-Notch2); format: cell-based, human
Description: as §1, §4

[14] = test system: NICD1; assay: NICD1 formation in HCT-116; format: cell-based, human; details: peptides 100 μM
Description: as §5, §4

[15] = test system: NICD1; assay: NICD1 formation in S1-M1-80; format: cell-based, human; details: 10 μM
Text: as §4

Structure (SMILES) | inhibition of DLL1-Notch1 signalling [1] | IC50 at 3 days [2] [µM] | inhibition of DLL4-Notch1 signalling [3] | IC50 [4] [µM] | IC50 [5] [µM] | IC50 [6] [µM] | inhibition of Jag1-induced Notch signaling compared with N1 [7] | inhibition of Jag1-induced Notch1 signalling, dose response [7] | Jag1-induced NICD1 level [8] | colony formation, combination with TPT [10] [colonies/well] | colony formation ([10]; S1-M1-80, single agent 10 μM) [colonies/well] | other results
CC[C@H](C)[C@H](NC(=O)[C@H](CCC(N)=O)NC(=O)[C@H](CC(=O)O)NC(=O)[C@H](CC(C)C)NC(=O)[C@@H](N)CS)C(=O)NCC(=O)N[C@@H](CCC(=O)O)C(=O)N[C@@H](Cc1ccccc1)C(=O)N[C@@H](CCC(N)=O)C(=O)N[C@@H](CS)C(=O)N[C@H](C(=O)N[C@@H](CS)C(=O)N[C@@H](CC(=O)O)C(=O)O)[C@@H](C)CC [Peptide N102M479D, CLDQIGEFQCICD] (H-CLDQIGEFQCICD-OH; N-terminus and C-terminus assumed) | did not interfere | > 100 | did not interfere | > 50 | 5.8 ± 0.2 | > 100 | biggest improvement | inhibited Jag1-induced Notch1 signaling in dose dependent manner | significantly decreased expression level of NICD1 |  |  | 
C[C@H](NC(=O)Cc1cc(F)cc(F)c1)C(=O)N[C@H](C(=O)OC(C)(C)C)c1ccccc1 [DAPT, N—[N-(3,5-Difluorophenacetyl)-L-alanyl]-S-phenylglycine t-butyl ester, reference compound] | can inhibit all signaling |  | can inhibit all signaling |  |  |  |  | can inhibit all signaling | equally effective in inhibiting both NICD1 and NICD2 | 1074 | 717 | DLL1-induced NICD1 level [9]: can inhibit both; NICD1 formation in HCT-15 [11]: almost complete elimination of NICD1; DLL4-induced NICD1 level [12]: can inhibit both; NICD2 formation [13]: equally effective in inhibiting both NICD1 and NICD2; IC50 ([4]; S1 cells, 3 days, MTS, read-out: IC50 (μM) S1): > 100 µM; IC50 ([5]; S1-M1-80 cells, 3 days, MTS, read-out: IC50 (μM) s1-m1-80): 17.1 ± 0.4 µM; NICD1 formation in HCT-116 [14]: almost complete elimination of NICD1
CC[C@H](C)[C@H](N)C(=O)N[C@@H](CS)C(=O)N[C@@H](CC(C)C)C(=O)N[C@@H](CC(=O)O)C(=O)N[C@@H](CCC(N)=O)C(=O)N[C@H](C(=O)NCC(=O)N[C@@H](CCC(=O)O)C(=O)N[C@@H](Cc1ccccc1)C(=O)N[C@@H](CCC(N)=O)C(=O)N[C@@H](CS)C(=O)N[C@H](C(=O)N[C@@H](CS)C(=O)N[C@@H](CCC(=O)O)C(=O)O)[C@@H](C)CC)[C@@H](C)CC [N102T466I-M479E, ICLDQIGEFQCICE] (H-ICLDQIGEFQCICE-OH; N-terminus and C-terminus assumed) |  | > 100 |  |  | 15.2 ± 4.2 | > 100 |  |  |  |  |  | 
CC[C@H](C)[C@H](NC(=O)[C@H](CCC(N)=O)NC(=O)[C@H](CC(=O)O)NC(=O)[C@H](CC(C)C)NC(=O)[C@@H](N)CS)C(=O)NCC(=O)N[C@@H](CCC(=O)O)C(=O)N[C@@H](Cc1ccccc1)C(=O)N[C@@H](CCC(N)=O)C(=O)N[C@@H](CS)C(=O)N[C@H](C(=O)N[C@@H](CS)C(=O)N[C@@H](CCC(=O)O)C(=O)O)[C@@H](C)CC [Peptide N102M479E, CLDQIGEFQCICE] (H-CLDQIGEFQCICE-OH; N-terminus and C-terminus assumed) | did not interfere | > 100 | did not interfere | > 30 | 4.9 ± 0.2 | > 100 | biggest improvement | inhibited Jag1-induced Notch1 signaling in dose dependent manner | significantly decreased expression level of NICD1 | 581 | 84 | colony formation of S1-M1-80, dose response [10]: effectively reduced colony formation; colony formation of S1-M1-80 ([10]; 1 μM): reduced by half; more potent than DAPT (colony formation) ([10]; 1 μM): 14%; colony formation of S1-M1-80 ([10]; 5 μM): almost eliminated the formation of all colonies; colony formation of S1-M1-80 ([10]; 10 μM): completely eliminated the formation of colonies; colony formation ([10]; S1-M1-80, single agent 1 μM): 925 colonies/well; effect with topotecan on colony formation of S1-M1-80 ([10]; TPT plus N102M479E): synergistic; increase of potency over TPT-DAPT combination (colony formation) ([10]; combined with 1 μM of TPT): 19%; NICD1 formation in S1-M1-80 cells [15]: totally suppress NICD1 formation
CC[C@H](C)[C@H](NC(=O)[C@H](CCC(N)=O)NC(=O)[C@H](CC(=O)O)NC(=O)[C@H](CC(C)C)NC(=O)[C@H](CS)NC(=O)[C@@H](N)Cc1c[nH]c2ccccc12)C(=O)NCC(=O)N[C@@H](CCC(=O)O)C(=O)N[C@@H](Cc1ccccc1)C(=O)N[C@@H](CCC(N)=O)C(=O)N[C@@H](CS)C(=O)N[C@H](C(=O)N[C@@H](CS)C(=O)N[C@@H](CCC(=O)O)C(=O)O)[C@@H](C)CC [N102T466W-M479E, WCLDQIGEFQCICE] (H-WCLDQIGEFQCICE-OH; N-terminus and C-terminus assumed) |  | > 100 |  |  | 54.3 ± 5.2 | > 100 |  |  |  |  |  | 

Source: patent US11117932B2, “Peptides for specific inhibition of Jag 1-Notch 1 pathway” (The Hong Kong Polytechnic University, priority 2018, dated 2021)
